{"source": "patent US4933330A", "about": "“Benzoic acid derivatives and use thereof” (priority 1987, dated 1990)", "key": {"[1]": {"assay": "In vivo dermal absorption of 5-ASA (serum and urine) in healthy volunteers", "experimental": "Serum concentrations and the amount excreted in urine of 5-ASA and the 5-ASA metabolite: […] The study was performed as an open study, divided into the following parts: Part I: 2 volunteers, normal skin, single dose. Part IA: 1 volunteer, stripped skin and 1 volunteer, normal skin and occlusion, single dose. Part IB: 1 volunteer, stripped skin and occlusion, single dose. Part II: 6 volunteers, stripped skin day 1, and occlusion day 1 and day 8, multiple doses. Part I, IA and IB: 0.5 g 5% 5-ASA cream was applied to one forearm of the volunteer and blood samples were taken at intervals for 6 hours from both arms. 24 hour urine samples were collected. […] Blood and urine were collected as described above on day 1 and 8. […] Clinical chemistry tests showing the state of the patient (blood status, liver and kidney function, etc.) were performed before and after the study."}, "[2]": {"assay": "In vivo absorption of 4-ASA (serum and urine) in healthy volunteers", "details": "for Highest serum levels recalculated to treatment of the whole body, passive and active side: versus 4-ASA perorally in tuberculosis treatment"}, "[3]": {"system": "psoriasis and contact dermatitis", "assay": "Conclusion of clinical testing (psoriasis and contact dermatitis)", "format": "in vivo, patients", "details": "active formulations", "experimental": "1. Patients with wide-spread psoriasis receiving systemic treatment with methotrexate, retinoids or topical treatment with dithranol or tar-preparations. An area of 5×5 cm^2 was used for treatment with compositions 1, 2 and 3 in an increasing concentration. A total of 5 patients were treated on in-patient basis, and the results were evaluated 2-3 times a week.\n2. In 3 out of 5 other patients treated with 5-ASA cream under occulsion with a thin plastic film a dramatic effect was seen after 4-6 days.\n3. 5% 5-ASA cream and placebo cream was compared in a randomized, double-blind, bilaterial trial with 5 psoriatic in-patients. Two contralateral psoriasis plaques of the same severity were treated for one week with the 5-ASA cream and placebo cream, respectively, with the concomitant use of an occulsive dressing.\n4. 5% 4-ASA cream and placebo cream were compared in a randomized, double blind, bilateral trial with 10 psoriasis out-patients. […]\nTen patients with known nickel allergy and 15 patients with known allergy to other compounds were tested with 5% 5-ASA cream and placebo cream in a randomized, double blind, bilateral trial. […] The study areas were occluded with Finn chambers for 48 hours, and the patients' symptoms were recorded. After 72 hours, the patch test reactions were evaluated and the patients' symptoms recorded."}, "[4]": {"details": "chronic inflammatory bowel disease; cited from earlier work"}, "[5]": {"assay": "In vitro dermal absorption in Franz Diffusion cells", "format": "in vitro ADME, human", "details": "for Detection of unchanged prodrug after penetration of the skin / Production of 5-ASA in free form after absorption / Absorbed amounts, 5-ASA versus prodrug No. 350: human skin in vitro", "experimental": "Franz Diffusion cells (FDC) are systems for the measurements of percutaneous absorption by the finite dose technique. Human skin is mounted in specially constructed diffusion chambers (FDC), and the skin is batched from below by a reservoir solution. 3×10 μl solution (1 mg/ml) of the following compounds were applied to human skin in Franz diffusion cells (0.636 cm^2) and kept at 37° C. by thermostatic control: Compound 1=5-ASA […] Samples were taken from the reservoir at intervals for 76 hours and analyzed by HPLC for 5-ASA and the prodrugs themselves."}, "[6]": {"system": "psoriasis plaques", "assay": "Randomized, bilateral trial of 5% 5-ASA cream vs placebo, 48 psoriasis patients", "format": "in vivo", "experimental": "Objective: To compare 5% 5-ASA cream with placebo cream in psoriasis patients.\n5% 5-ASA cream and placebo cream were compared in a randomized, bilateral trial with 48 psoriasis patients (24 hospitalized and 24 out-patients). Two contralateral psoriasis plaques (5×5 cm^2 -10×10 cm^2) of the same severity were treated 3 times daily for two weeks (occulsion at night) with the 5-ASA and placebo creams, respectively.\nAny reported adverse reactions were noted.\nThe differences between the \"active side\" (treated with 5-ASA) and the \"placebo side\" were statistically tested by a binomial distribution test."}, "[7]": {"system": "nickel allergy", "assay": "Contact dermatitis/allergy test, patients with nickel allergy", "format": "in vivo", "details": "5% 5-ASA cream vs placebo; after 72 hours", "experimental": "(§1) Ten patients with known nickel allergy and 15 patients with known allergy to other compounds were tested with 5% 5-ASA cream and placebo cream in a randomized, double blind, bilateral trial. The allergen was applied on two 1×1 cm^2 areas and the study creams were then applied on the left and right 2×2 cm^2 study areas, respectively. The study areas were occluded with Finn chambers for 48 hours, and the patients' symptoms were recorded. After 72 hours, the patch test reactions were evaluated and the patients' symptoms recorded."}, "[8]": {"system": "rat", "details": "intravenously; cited from earlier work"}, "[9]": {"system": "allergy to other compounds", "assay": "Contact dermatitis/allergy test, patients with allergy to other compounds", "format": "in vivo", "details": "5% 5-ASA cream vs placebo", "experimental": "as §1"}, "[10]": {"details": "human, serum, topical or ocular, 25 mg"}, "[11]": {"details": "% of dose through the skin during 76 hours, 3×10 μl of 1 mg/ml, 37° C."}, "[12]": {"details": "human, in vivo, topical or ocular"}}}
{"molecule": "CC(=O)Nc1ccc(O)c(C(=O)O)c1", "note": "[Ac-5-ASA, 2-Hydroxy-5-acetamidobenzoic acid]", "values": [{"measurement": "Amount in urine versus peroral or rectal administration", "setting": "[1]; human, in vivo", "value": "much lower in percentages than after peroral or rectal administration"}, {"measurement": "Maximum serum concentration recalculated to treatment of the whole body, active side", "setting": "[1]; human, in vivo", "value": "2-3 times the values reported in studies with SASP"}, {"measurement": "Maximum serum concentration recalculated to treatment of the whole body, passive side", "setting": "[1]; human, in vivo", "value": "within the values reported in studies with salazosulphapyridine (SASP)"}, {"measurement": "Recovery in urine", "setting": "[1]; human, in vivo", "value": "Only Ac-5-ASA were recovered in urine"}, {"measurement": "Median serum concentration", "setting": "[1]; human, in vivo, topical or ocular, 0.25 h", "value": 13.5, "unit": "ng/mL"}, {"measurement": "Median serum concentration", "setting": "[1]; human, in vivo, topical or ocular, 0.5 h", "value": 7.0, "unit": "ng/mL"}, {"measurement": "Median serum concentration", "setting": "[1]; human, in vivo, topical or ocular, 0.75 h", "value": 10.3, "unit": "ng/mL"}, {"measurement": "Median serum concentration", "setting": "[1]; human, in vivo, topical or ocular, 1.5 h", "value": 14.6, "unit": "ng/mL"}, {"measurement": "Median serum concentration", "setting": "[1]; human, in vivo, topical or ocular, 3 h", "value": 8.2, "unit": "ng/mL"}]}
{"molecule": "CC(=O)Nc1ccc(C(=O)O)c(O)c1", "note": "[Ac-4-ASA, N-acetyl-4-aminosalicylic acid]", "values": [{"measurement": "Highest serum levels recalculated to treatment of the whole body, passive and active side", "setting": "[2]", "value": "within the values reported after use of 4-ASA perorally in tuberculosis treatment"}, {"measurement": "Amount in urine", "setting": "[2]; versus peroral administration", "value": "very small amounts in urine"}]}
{"molecule": "Nc1ccc(C(=O)O)c(O)c1", "note": "[Example 4-ASA, 4-aminosalicylic acid]", "values": [{"measurement": "concentration at 0.25 h", "setting": "[2]; [10]", "value": 24, "unit": "ng/mL"}, {"measurement": "concentration at 0.5 h", "setting": "[2]; [10]", "value": 43, "unit": "ng/mL"}, {"measurement": "concentration at 1.5 h", "setting": "[2]; [10]", "value": 16, "unit": "ng/mL"}, {"measurement": "Highest serum levels recalculated to treatment of the whole body, passive and active side", "setting": "[2]", "value": "within the values reported after use of 4-ASA perorally in tuberculosis treatment"}, {"measurement": "Efficacy vs placebo in comparative trials", "setting": "[3]", "value": "more efficient than placebo"}]}
{"molecule": "Nc1ccc(S(=O)(=O)Nc2ccccn2)cc1", "note": "[Sulphapyridine]", "values": [{"measurement": "Side effects after treatment with salazosulphapyridine", "setting": "[4]", "value": "responsible for the side effects reported after treatment with salazosulphapyridine"}]}
{"molecule": "CCOC(=O)c1cc(N)ccc1O", "note": "[Prodrug No. 345, Ethyl 2-hydroxy-5-aminobenzoate]", "values": [{"measurement": "% absorbed, compound measured: 5-ASA", "setting": "[5]; [11]", "value": "18.2-24.0%"}, {"measurement": "% absorbed, compound measured: prodrug itself", "setting": "[5]; [11]", "value": "36.1-45.4%"}, {"measurement": "Enhanced absorption, % of the dose", "setting": "[5]; as much as, 76 hours", "value": "≤ 70 % of the dose"}, {"measurement": "Detection of unchanged prodrug after penetration of the skin", "setting": "[5]", "value": "detected unchanged after penetration of the skin"}, {"measurement": "Production of 5-ASA in free form after absorption", "setting": "[5]", "value": "could produce 5-ASA in free form after absorption through human skin in vitro"}]}
{"molecule": "CCOC(=O)c1cc(N)ccc1OC(C)=O", "note": "[Prodrug No. 350, Ethyl 2-acetoxy-5-aminobenzoate]", "values": [{"measurement": "% absorbed, compound measured: 5-ASA", "setting": "[5]; [11]", "value": "11.9-16.8%"}, {"measurement": "Absorbed amounts, 5-ASA versus prodrug No. 350", "setting": "[5]", "value": "of the same size"}, {"measurement": "Detection of unchanged prodrug after penetration of the skin", "setting": "[5]", "value": "could not be detected unchanged"}, {"measurement": "Production of 5-ASA in free form after absorption", "setting": "[5]", "value": "could produce 5-ASA in free form after absorption through human skin in vitro"}]}
{"molecule": "Nc1ccc(O)c(C(=O)O)c1", "note": "[Example 5-ASA, 5-aminosalicylic acid, reference compound]", "values": [{"measurement": "Effect compared to placebo (conclusion)", "setting": "[6]", "value": "A significant effect"}, {"measurement": "% absorbed, compound measured: 5-ASA", "setting": "[5]; [11]", "value": "7.8-15.6%"}, {"measurement": "Absorbed amounts, 5-ASA versus prodrug No. 350", "setting": "[5]", "value": "of the same size"}, {"measurement": "Efficacy vs placebo in comparative trials", "setting": "[3]", "value": "more efficient than placebo"}, {"measurement": "Patients showing no difference regarding pruritus", "setting": "[7]", "value": "two"}, {"measurement": "Patients with preference to 5-ASA regarding pruritus", "setting": "[7]", "value": "Seven out of 10"}, {"measurement": "Patients with preference to 5-ASA side, investigator's opinion and patch tests", "setting": "[7]", "value": "9 out of 10"}, {"measurement": "Absorption through normal skin", "setting": "[1]; 5% 5-ASA cream, normal skin", "value": "No absorption through normal skin was detected"}, {"measurement": "Absorption through occluded skin", "setting": "[1]; 5% 5-ASA cream, occluded skin, late", "value": "Small amounts"}, {"measurement": "Absorption through both stripped and occluded skin", "setting": "[1]; 5% 5-ASA cream, stripped and occluded skin", "value": "larger amounts"}, {"measurement": "Absorption through stripped skin", "setting": "[1]; 5% 5-ASA cream, stripped skin, early", "value": "Small amounts"}, {"measurement": "Maximum serum concentration recalculated to treatment of the whole body, active side", "setting": "[1]; human, in vivo", "value": "2-3 times the values reported in studies with SASP"}, {"measurement": "Maximum serum concentration recalculated to treatment of the whole body, passive side", "setting": "[1]; human, in vivo", "value": "within the values reported in studies with salazosulphapyridine (SASP)"}, {"measurement": "concentration at 0.25 h", "setting": "[1]; [12]", "value": 19.4, "unit": "ng/mL"}, {"measurement": "concentration at 0.5 h", "setting": "[1]; [12]", "value": 8.3, "unit": "ng/mL"}, {"measurement": "concentration at 0.75 h", "setting": "[1]; [12]", "value": 7.3, "unit": "ng/mL"}, {"measurement": "concentration at 1 h", "setting": "[1]; [12]", "value": 8.2, "unit": "ng/mL"}, {"measurement": "concentration at 1.5 h", "setting": "[1]; [12]", "value": 7.1, "unit": "ng/mL"}, {"measurement": "concentration at 2 h", "setting": "[1]; [12]", "value": 3.9, "unit": "ng/mL"}, {"measurement": "concentration at 4 h", "setting": "[1]; [12]", "value": 17.2, "unit": "ng/mL"}, {"measurement": "concentration at 6 h", "setting": "[1]; [12]", "value": 22.9, "unit": "ng/mL"}, {"measurement": "Nephrotoxic dose", "setting": "[8]", "value": "300 to 900", "unit": "mg/kg"}, {"measurement": "Preference of patients vs placebo", "setting": "[9]", "value": "about twice as many patients preferred the 5-ASA treatment in comparison with placebo"}]}
